Source: patent US10246712B2, “Genetic or pharmacological reduction of PERK enhances cortical- and hippocampus-dependent cognitive function” (Carmel-Haifa University Economic Corp. Ltd, priority 2015, dated 2019)

Test system: pyramidal CA1 neurons
Assay: Whole cell patch clamp recording of intrinsic neuronal properties
Type: cell-based, mouse
Details: vs vehicle
Experimental: Mice were sacrificed by cervical dislocation and three hundred micrometer coronal brain slices were cut with a Campden-1000 Vibrotome. Slices were cut in ice-cold cutting solution containing (in mM) 110 sucrose, 60 NaCl, 3 KCl, 1.25 NaH2PO4, 28 NaHCO3, 0.5 CaCl2, 7 MgCl2, 5 glucose, and 0.6 ascorbate and recovered for 30 min at 37° C. in artificial cerebrospinal fluid (ACSF) containing (in mM) 125 NaCl, 2.5 KCl, 1.25 NaH2PO4, 25 NaHCO3, 25 D-glucose, 2 CaCl2, and 1 MgCl2, followed by additional recovery for 30 min in room-temperature ACSF. After initial recovery, slices were placed in a submerged chamber and maintained at 34° C. in ACSF (2 ml/min). All solutions were constantly carboxygenated with 95% O2+5% CO2.
Cells infected with PERK-shRNA- or scrambled sequence PERK shRNA (PERK-Scr)-containing AAV were identified by green fluorescence. Recordings were amplified by multiclamp 700B and digitized by Digidata 1440 (Molecular Devices). The recording electrode was pulled from a borosilicate glass pipette (3-5 MΩ) using an electrode puller (P-1000; Sutter Instruments) and filled with a K-gluconate-based internal solution containing (in mM) 120 K-gluconate, 20 KCl, 10 HEPES, 2 MgCl2, 4 Na2ATP, 0.5 TrisGTP, 14 phosphocreatine, osmolarity 290 mOsm, and pH 7.3. The recording glass pipettes were patched onto the soma region of pyramidal cells. Voltages for liquid junction potential (+10 mV) were not corrected online. All current-clamp recordings were low-pass filtered at 10 kHz and sampled at 50 kHz. Series resistance was compensated and only series resistance <20 MΩ was included in the data set. Pipette capacitance was ˜99% compensated. The method for measuring active intrinsic properties was based on a modified version of Kaphzan H et al., 2013. For recordings with GSK2606414, 100 nM inhibitor was applied in the pipette solution, and recordings were performed as described above.
Resting membrane potential (RMP) was measured 5 min after the seal was ruptured. The I-V (current-voltage) relationship used to calculate number of action potentials obtained by injection of 1 s pulses (−150 to +300 pA in 50 pA increments).
Input resistance (Rin) was calculated from the voltage response to a hyperpolarizing current pulse (−150 pA). For measurements of a single AP, after initial assessment of the current, which was required to induce an action potential at 15 ms from the start of the current injection with large steps (50 pA), we injected a series of brief depolarizing currents for 10 ms in steps of 10 pA increments. The first action potential that appeared on the 5 ms time point was analyzed. A curve of dV/dt was created for that trace, and the 30 V/s point in the rising slope of the action potential was considered as threshold (Kaphzan et al., 2013).
AP amplitude was measured from the equipotential point of the threshold to the spike peak, while AP duration was measured at the point of half-amplitude of the spike. The mAHP (medium after-hyperpolarization) was measured using prolonged (3 s), high-amplitude (3 nA) somatic current injections to initiate time-locked action potential trains of 50 Hz frequency and duration (10-50 Hz, 1 or 3 s) in pyramidal cells. These action potential trains generated prolonged (˜20 s) AHPs, the amplitudes and integrals of which increased with the number of action potentials in the spike train. AHP was measured from the equipotential point of the threshold to the anti-peak of the same spike (Gulledge et al., 2013).
Series resistance, input resistance, and membrane capacitance were monitored during the entire experiment. Changes in these parameters (which were monitored throughout the entire duration of the experiment) greater than 10% were criteria for exclusion of data. AU experimental analyses were performed in a blind manner; the identity of the mouse from which neurons were recorded (PERK shRNA or scrambled) was not known to the person conducting the experiments and measurements.

Cn1cc(-c2ccc3c(c2)CCN3C(=O)Cc2cccc(C(F)(F)F)c2)c2c(N)ncnc21 [GSK2606414, 7-methyl-5-(1-{[3-(trifluoromethyl)phenyl]acetyl}-2,3-dihydro-1H-indol-5-yl)-7H-pyrrolo[2,3-d]pyrimidin-4-amine]
action potential (AP) frequency (100 nM in pipette solution, acute hippocampal slices, increased current steps): increased
AP amplitude (100 nM in pipette solution): longer
AP mid width (100 nM in pipette solution): wider
AP threshold (100 nM in pipette solution): hyperpolarized
input resistance (100 nM in pipette solution): Neither resting membrane potential (RMP) nor input resistance was changed
resting membrane potential (RMP) (100 nM in pipette solution): Neither resting membrane potential (RMP) nor input resistance was changed
mAHP (100 nM, acute hippocampal slices): significantly reduced
